Data taken from patent publication US20240091210A1, “USE OF 5-[[4-[2-[5-ACETYLPYRIDIN-2-YL]ETHOXY]BENZYL]-1,3-THIAZOLIDINE-2,4-DIONE AND ITS SALTS” (Minoryx Therapeutics S.L., priority 2018, published 2024).

Key:
MDR1 = assay: MDCKII monolayer assay; format: in vitro ADME; details: dog, MDCK; after 120 minutes, MDCKII-MDR1 and MDCKII-Mock; loss due to conversion to M-IV
Description: The monolayer assays were performed using parental and MDR1 transfected MDCKII cell monolayers. MDCKII and MDCKII-MDR1 cells were cultured in Dulbecco's Modified Eagle's Medium with 4.5 g/L glucose (DMEM) supplemented with 10% (v/v) fetal bovine serum (FBS) at 37±1° C. in an atmosphere of 95:5 air:CO2 in cell culture flasks prior to seeding into 24-transwell inserts. Transfected and parental MDCKII cells were cultured on the inserts with 400 μL medium per well on the apical side and 25 mL in a single-well receiver tray for all 24 wells on the basolateral side, for 96 hours. Medium was changed 24 hours before the experiment. Trans-epithelial electric resistance (TEER) of each well was measured to confirm the confluency of the monolayers prior to the experiments. Permeability incubations were carried out in Hank's Buffered Salt Solution (HBSS) at 37±1° C. Apical to basolateral permeability of Lucifer yellow (LY) was assessed as a low permeability control and antipyrine was as a high permeability compound. […] LY samples were analyzed by measuring fluorescence with the following wavelengths: excitation—485 nm emission—520 nm, while the antipyrine samples were analyzed with LC-MS/MS.
As another follow-up, MDCKII-MDR1 substrate experiment was repeated at […] M-III. The amounts of M-III and M-IV were determined at the end of the incubation time. […]

[1] = Plasma pharmacokinetics in rats after single oral 10 mg/kg M-III or MIN-102; format: in vivo, male Sprague Dawley rats
Description: (§1) The plasma pharmacokinetics of 5-[[4-[2-[5-acetylpyridin-2-yl]ethoxy]phenyl]methyl]-1,3-thiazolidine-2,4-dione (M-III; M3) and 5-[[4-[2-[5-(1-hydroxyethyl)pyridin-2-yl]ethoxy]phenyl]methyl]-1,3-thiazolidine-2,4-dione (M-IV; M4) were determined in male Sprague Dawley following a single oral (10 mg/kg) dose administration of either M-III or MIN-102.
Six animals were dosed orally with a suspension formulation of either M-III or MIN-102 in 0.1% Tween 80 and 99.9% CMC (0.5% w/v solution in RO water) at 10 mg/kg.
The dosing volume administered was 10 mL/kg. Blood samples (approximately 60 μL) were collected from retro-orbital plexus of three rats at 0.08, 0.25, 0.5, 1, 2, 4, 8, 12 and 24 hr (IV) and at predose, 0.25, 0.5, 1, 2, 4, 8, 12 and 24 hr. Samples were collected into labeled micro-tubes, containing K2EDTA solution (20% K2EDTA solution) as an anticoagulant. Plasma was immediately harvested from the blood by centrifugation at 4000 rpm for 10 min at 4±2° C. and stored below −70° C. until bioanalysis.
Concentrations of M-III and M-IV in rat plasma samples were determined by fit-for-purpose LC-MS/MS method. Non-Compartmental-Analysis module in Phoenix WinNonlin® (Version 6.3) was used to assess the pharmacokinetic parameters. Peak plasma concentrations (Cax) and time for the peak plasma concentrations (Tmax) were the observed values. The areas under the concentration time curve (AUClast and AUCinf) were calculated by linear trapezoidal rule.

[2] = Plasma pharmacokinetics in mice after single oral 50 mg/kg M-III; format: in vivo; details: male C57BL/6 mice
Description: as §1, with “To the” for “The”, “(M-III)” for “(M-III; M3)”, “(M-IV)” for “(M-IV; M4)”, “C57BL/6 mice” for “Sprague Dawley”, “(50” for “(10”, “M-III.” for “either M-III or MIN-102.”
Nine animals were administered orally with suspension formulation of M-III in 0.1% Tween 80 and 99.9% NaCMC in water (0.5% w/v) at 50 mg/kg dose. The dosing volume administered was 10 mL/kg. The blood samples were collected from set of three mice at each time point in labeled micro centrifuge tube containing K2EDTA solution as anticoagulant at Pre-dose, 0.25, 0.5, 1, 2, 4, 8, 12 and 24 hr. Plasma samples were separated by centrifugation of whole blood and stored below −70±10° C. until bioanalysis. All samples were processed for analysis by protein precipitation using acetonitrile and analyzed with fit-for-purpose LC-MS/MS method (LLOQ=2.46 ng/mL for M-III and 2.49 ng/mL for M-IV). Pharmacokinetic parameters were calculated using the non-compartmental analysis tool of Phoenix WinNonlin® (Version 6.3).

[3] = Plasma pharmacokinetics in mice after single oral 4.5 mg/kg M-III or MIN-102; format: in vivo, male C57BL/6 mice
Description: The plasma pharmacokinetics of 5-[[4-[2-[5-acetylpyridin-2-yl]ethoxy]phenyl]methyl]-1,3-thiazolidine-2,4-dione (M-III) and 5-[[4-[2-[5-(1-hydroxyethyl)pyridin-2-yl]ethoxy]phenyl]methyl]-1,3-thiazolidine-2,4-dione (M-IV) were determined in male C57BL/6 mice following a single oral (4.5 mg/kg) dose of either M-III or MIN-102 (5-[[4-[2-[5-(1-hydroxyethyl)pyridin-2-yl]ethoxy]phenyl]methyl]-1,3-thiazolidine-2,4-dione hydrochloride).
Animals were administered orally with a suspension formulation of either M-III or MIN-102 in 0.1% Tween 80 and 99.9% NaCMC in water (0.5% w/v) at 4.5 mg/kg dose. The blood samples were collected from a set of three mice at each time point in labeled micro centrifuge tubes containing K2EDTA solution as anticoagulant at Pre-dose, 0.25, 0.5, 1, 2, 4, 8, 12 and 24 hr. Plasma samples were separated by centrifugation of whole blood and stored below −70±10° C. until bioanalysis. All samples were processed for analysis by protein precipitation using acetonitrile and analyzed with fit-for-purpose LC-MS/MS method (LLOQ=2.46 ng/mL for M-III and 2.49 ng/mL for M-IV). Pharmacokinetic parameters were calculated using the non-compartmental analysis tool of Phoenix WinNonlin® (Version 6.3).

[4] = Plasma pharmacokinetics in dogs after single oral 3 mg/kg M3 or MIN-102; format: in vivo, male Beagle dogs
Description: as §1, with “male Beagle dogs” for “male Sprague Dawley”, “oral (3” for “oral (10”, “either M3” for “either M-III”
Six animals were dosed orally with a suspension formulation of either M-III or MIN-102 in 0.1% Tween 80 and 99.9% CMC (aqueous carboxymethylcellulose 0.5% w/v solution in RO water) at 3 mg/kg. Blood samples (0.5 ml) were collected from the saphenous or cephalic or jugular veins of dogs at predose, 0.5, 1, 2, 4, 6 and 24 hr. Samples were collected into labeled micro-tubes, containing K2EDTA solution (20% K2EDTA solution) as an anticoagulant. Plasma was immediately harvested from the blood by centrifugation at 4000 rpm for 10 min and stored below −70° C. until bioanalysis.
Concentrations of M3 and M-IV in dog plasma samples were determined by fit-for-purpose LC-MS/MS method. Non-Compartmental-Analysis module in Phoenix WinNonlin® (Version 6.3) was used to assess the pharmacokinetic parameters. Peak plasma concentrations (Cmax) and time for the peak plasma concentrations (Tmax) were the […] observed values. The areas under the concentration time curve (AUClast and AUCinf) were calculated by linear trapezoidal rule.

[5] = as described in WO 2015/150476 A1; cited from earlier work

Structure (SMILES): CC(=O)c1ccc(CCOc2ccc(CC3SC(=O)NC3=O)cc2)nc1 (stereo not drawn) [M-III, 5-[[4-[2-[5-acetylpyridin-2-yl]ethoxy]phenyl]methyl]-1,3-thiazolidine-2,4-dione]
- recovery at 120 min (MDR1): 30 to 60%
- share of total exposure (AUC) ([1]; after single oral 10 mg/kg M-III, male rats): ~53%
- share of total exposure (AUC) ([1]; after single oral 10 mg/kg MIN-102, male rats): about 42%
- share of total exposure (AUC) [2]: about 25%
- share of total exposure (AUC) ([3]; after single oral 4.5 mg/kg M-III, male mice): ~27%
- share of total exposure (AUC) ([3]; after single oral 4.5 mg/kg MIN-102, male mice): about 38%
- share of total exposure (AUC) ([4]; after single oral 3 mg/kg M3, male dogs): ~16%
- share of total exposure (AUC) ([4]; after single oral 3 mg/kg MIN-102, male dogs): about 8%
- blood-brain-barrier penetration [5]: does not penetrate the BBB
